{"source": "ChEMBL document CHEMBL1129789", "about": "“Dopamine D3 and D4 receptor antagonists: synthesis and structure--activity relationships of (S)-(+)-N-(1-Benzyl-3-pyrrolidinyl)-5-chloro-4- [(cyclopropylcarbonyl) amino]-2-methoxybenzamide (YM-43611) and related compounds” (J Med Chem, 1996)", "key": {"D(3) dopamine receptor": {"biological_target": "D(3) dopamine receptor (Rattus norvegicus, UniProt P19020)", "sequence (P19020 whole entry)": "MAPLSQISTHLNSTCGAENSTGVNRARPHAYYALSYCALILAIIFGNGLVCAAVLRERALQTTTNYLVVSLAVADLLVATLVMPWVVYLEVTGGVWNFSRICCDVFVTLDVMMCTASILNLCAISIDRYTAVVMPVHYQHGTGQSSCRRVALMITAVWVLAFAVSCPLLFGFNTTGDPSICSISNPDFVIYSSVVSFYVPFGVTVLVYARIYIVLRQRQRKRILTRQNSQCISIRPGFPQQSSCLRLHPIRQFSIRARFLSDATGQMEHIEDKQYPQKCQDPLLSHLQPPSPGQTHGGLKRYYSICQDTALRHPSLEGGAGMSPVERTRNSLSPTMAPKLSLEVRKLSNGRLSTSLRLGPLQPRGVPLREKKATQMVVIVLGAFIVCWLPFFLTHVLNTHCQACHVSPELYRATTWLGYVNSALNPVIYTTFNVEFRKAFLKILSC", "assay": "biochemical", "description": "Binding affinity to rat Dopamine receptor D3 expressed in CHO cells was determined using [125 I] iodosulpride as radioligand"}, "D(4) dopamine receptor": {"biological_target": "T1, D(4) dopamine receptor (Homo sapiens, UniProt P21917)", "T1 sequence (P21917 whole entry)": "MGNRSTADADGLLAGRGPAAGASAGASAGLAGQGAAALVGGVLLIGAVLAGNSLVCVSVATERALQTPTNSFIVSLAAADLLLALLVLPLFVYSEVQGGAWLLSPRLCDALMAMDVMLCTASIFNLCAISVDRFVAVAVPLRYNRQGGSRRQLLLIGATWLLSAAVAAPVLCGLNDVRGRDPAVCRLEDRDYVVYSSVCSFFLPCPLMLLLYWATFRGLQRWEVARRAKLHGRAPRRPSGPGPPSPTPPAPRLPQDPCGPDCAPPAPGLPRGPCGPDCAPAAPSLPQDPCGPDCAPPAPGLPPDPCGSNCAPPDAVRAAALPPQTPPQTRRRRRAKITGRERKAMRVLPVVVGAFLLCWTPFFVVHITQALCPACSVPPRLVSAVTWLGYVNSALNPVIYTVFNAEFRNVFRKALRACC", "assay": "biochemical"}, "Mus musculus [1]": {"species": "Mus musculus", "assay": "Compound was tested for inhibition of Apomorphine induced climbing in Mice", "format": "functional"}, "Adrenergic receptor beta": {"biological_target": "Adrenergic receptor beta (Rattus norvegicus, UniProt P18090+P10608+P26255)", "assay": "Compound was tested for the binding affinity against rat cortical Beta adrenergic receptor by Radio ligand [3H]dihydroalprenolol binding assay.", "format": "protein assay"}, "Mus musculus [2]": {"system": "Mus musculus", "assay": "Compound was tested for inhibition of Apomorphine induced climbing in Mice on subcutaneous administration", "format": "functional", "details": "sc"}, "Mus musculus [3]": {"system": "Mus musculus", "assay": "Inhibition of Apomorphine induced climbing in mice administered sc", "format": "functional"}}, "data": [{"compound": "COc1cc(NC(=O)C2CCCC2)c(Cl)cc1C(=O)N[C@@H]1CCN(Cc2ccccc2)C1", "values": [{"measurement": "Ki", "setting": "D(3) dopamine receptor", "value": 150, "unit": "nM"}, {"measurement": "Ki", "setting": "D(4) dopamine receptor", "value": 18, "unit": "nM"}]}, {"compound": "CNc1cc(OC)c(C(=O)N[C@H]2CCN(C3C4CCCC3CCC4)C2)cc1Cl", "note": "(stereo partly drawn)", "values": [{"measurement": "Ki", "setting": "D(3) dopamine receptor", "value": 0.24, "unit": "nM"}, {"measurement": "Ki", "setting": "D(4) dopamine receptor", "value": 0.67, "unit": "nM"}]}, {"compound": "COc1cc(NC(=O)C2CC2)c(Cl)cc1C(=O)N[C@H]1CCN(CCc2ccccc2)C1", "values": [{"measurement": "Ki", "setting": "D(3) dopamine receptor", "value": 33, "unit": "nM"}, {"measurement": "Ki", "setting": "D(4) dopamine receptor", "value": 3.4, "unit": "nM"}]}, {"compound": "O=C(CCCN1CCC(O)(c2ccc(Cl)cc2)CC1)c1ccc(F)cc1", "note": "[HALOPERIDOL]", "values": [{"measurement": "ED50", "setting": "Mus musculus [1]", "value": 0.041, "unit": "mg/kg"}, {"measurement": "Ki", "setting": "Adrenergic receptor beta", "value": "> 10", "unit": "µM"}]}, {"compound": "CCC(=O)Nc1cc(OC)c(C(=O)N[C@H]2CCN(Cc3ccccc3)C2)cc1Cl", "values": [{"measurement": "ED50", "setting": "Mus musculus [2]", "value": 0.31, "unit": "mg/kg"}, {"measurement": "Ki", "setting": "D(3) dopamine receptor", "value": 5.9, "unit": "nM"}, {"measurement": "Ki", "setting": "D(4) dopamine receptor", "value": 1.5, "unit": "nM"}]}, {"compound": "COc1cc(NC(=O)C(C)C)c(Cl)cc1C(=O)N[C@H]1CCN(Cc2ccccc2)C1", "values": [{"measurement": "Ki", "setting": "D(3) dopamine receptor", "value": 15, "unit": "nM"}, {"measurement": "Ki", "setting": "D(4) dopamine receptor", "value": 3, "unit": "nM"}]}, {"compound": "COc1cc(NC(=O)C2CCC2)c(Cl)cc1C(=O)N[C@@H]1CCN(Cc2ccccc2)C1", "values": [{"measurement": "Ki", "setting": "D(3) dopamine receptor", "value": 100, "unit": "nM"}, {"measurement": "Ki", "setting": "D(4) dopamine receptor", "value": 7, "unit": "nM"}]}, {"compound": "CNc1cc(OC)c(C(=O)N[C@H]2CCN(Cc3ccccc3)[C@H]2C)cc1Cl", "note": "[NEMONAPRIDE]", "values": [{"measurement": "ED50", "setting": "Mus musculus [2]", "value": 0.012, "unit": "mg/kg"}]}, {"compound": "COc1cc(NC(=O)C2CC2)c(Cl)cc1C(=O)N[C@H]1CCN(C2CCCCC2)C1", "values": [{"measurement": "ED50", "setting": "Mus musculus [2]", "value": 1.4, "unit": "mg/kg"}, {"measurement": "Ki", "setting": "D(3) dopamine receptor", "value": 4.4, "unit": "nM"}, {"measurement": "Ki", "setting": "D(4) dopamine receptor", "value": 2.1, "unit": "nM"}]}, {"compound": "COc1cc(NC(=O)C2CC2)c(Cl)cc1C(=O)N[C@H]1CCNC1", "values": [{"measurement": "ED50", "setting": "Mus musculus [2]", "value": "> 30", "unit": "mg/kg"}, {"measurement": "Ki", "setting": "D(3) dopamine receptor", "value": 3000, "unit": "nM"}, {"measurement": "Ki", "setting": "D(4) dopamine receptor", "value": 2200, "unit": "nM"}]}, {"compound": "C=CC(=O)Nc1cc(OC)c(C(=O)N[C@H]2CCN(Cc3ccccc3)C2)cc1Cl", "values": [{"measurement": "Ki", "setting": "D(3) dopamine receptor", "value": 4.7, "unit": "nM"}, {"measurement": "Ki", "setting": "D(4) dopamine receptor", "value": 1.3, "unit": "nM"}]}, {"compound": "COc1cc(NC(=O)C2CCC2)c(Cl)cc1C(=O)N[C@H]1CCN(Cc2ccccc2)C1", "values": [{"measurement": "ED50", "setting": "Mus musculus [2]", "value": 0.14, "unit": "mg/kg"}, {"measurement": "Ki", "setting": "D(3) dopamine receptor", "value": 36, "unit": "nM"}, {"measurement": "Ki", "setting": "D(4) dopamine receptor", "value": 5.2, "unit": "nM"}]}, {"compound": "CN1CCN(C2=Nc3cc(Cl)ccc3Nc3ccccc32)CC1", "note": "[CLOZAPINE]", "values": [{"measurement": "ED50", "setting": "Mus musculus [1]", "value": 6.8, "unit": "mg/kg"}]}, {"compound": "COc1cc(NC(=O)C2CCCCC2)c(Cl)cc1C(=O)N[C@H]1CCN(Cc2ccccc2)C1", "values": [{"measurement": "Ki", "setting": "D(3) dopamine receptor", "value": 200, "unit": "nM"}, {"measurement": "Ki", "setting": "D(4) dopamine receptor", "value": 110, "unit": "nM"}]}, {"compound": "COc1cc(NC(=O)c2ccccc2)c(Cl)cc1C(=O)N[C@H]1CCN(Cc2ccccc2)C1", "values": [{"measurement": "Ki", "setting": "D(3) dopamine receptor", "value": 200, "unit": "nM"}, {"measurement": "Ki", "setting": "D(4) dopamine receptor", "value": 87, "unit": "nM"}]}, {"compound": "COc1cc(NC(=O)C2CC2)c(Cl)cc1C(=O)N[C@H]1CCN(C2CCCCCC2)C1", "values": [{"measurement": "Ki", "setting": "D(3) dopamine receptor", "value": 1.5, "unit": "nM"}, {"measurement": "Ki", "setting": "D(4) dopamine receptor", "value": 2.7, "unit": "nM"}]}, {"compound": "COc1cc(NC(=O)C2CC2)c(Cl)cc1C(=O)N[C@H]1CCN(CC2CCCCC2)C1", "values": [{"measurement": "Ki", "setting": "D(3) dopamine receptor", "value": 3.7, "unit": "nM"}, {"measurement": "Ki", "setting": "D(4) dopamine receptor", "value": 3.3, "unit": "nM"}]}, {"compound": "COc1cc(NC(=O)C2CC2)c(Cl)cc1C(=O)N[C@@H]1CCN(Cc2ccccc2)C1", "values": [{"measurement": "ED50", "setting": "Mus musculus [2]", "value": 0.45, "unit": "mg/kg"}, {"measurement": "Ki", "setting": "D(3) dopamine receptor", "value": 60, "unit": "nM"}, {"measurement": "Ki", "setting": "D(4) dopamine receptor", "value": 5.6, "unit": "nM"}]}, {"compound": "COc1cc(NC(=O)C2CCCC2)c(Cl)cc1C(=O)N[C@H]1CCN(Cc2ccccc2)C1", "values": [{"measurement": "ED50", "setting": "Mus musculus [2]", "value": 0.28, "unit": "mg/kg"}, {"measurement": "Ki", "setting": "D(3) dopamine receptor", "value": 55, "unit": "nM"}, {"measurement": "Ki", "setting": "D(4) dopamine receptor", "value": 20, "unit": "nM"}]}, {"compound": "COc1cc(N)c(Cl)cc1C(=O)N[C@@H]1CCN(Cc2ccccc2)C1", "values": [{"measurement": "Ki", "setting": "D(3) dopamine receptor", "value": 1.9, "unit": "nM"}]}, {"compound": "COc1cc(NC(=O)C(F)(F)F)c(Cl)cc1C(=O)N[C@H]1CCN(Cc2ccccc2)C1", "values": [{"measurement": "Ki", "setting": "D(3) dopamine receptor", "value": 5.1, "unit": "nM"}, {"measurement": "Ki", "setting": "D(4) dopamine receptor", "value": 1.9, "unit": "nM"}]}, {"compound": "COc1cc(N)c(Cl)cc1C(=O)N[C@H]1CCN(Cc2ccccc2)C1", "values": [{"measurement": "ED50", "setting": "Mus musculus [3]", "value": 0.071, "unit": "mg/kg"}, {"measurement": "Ki", "setting": "D(3) dopamine receptor", "value": 0.58, "unit": "nM"}]}, {"compound": "COc1cc(NC(=O)C2CC2)c(Cl)cc1C(=O)N[C@H]1CCN(C2C3CC4CC(C3)CC2C4)C1", "note": "(stereo partly drawn)", "values": [{"measurement": "ED50", "setting": "Mus musculus [2]", "value": "> 10", "unit": "mg/kg"}, {"measurement": "Ki", "setting": "D(3) dopamine receptor", "value": 1.7, "unit": "nM"}, {"measurement": "Ki", "setting": "D(4) dopamine receptor", "value": 4.4, "unit": "nM"}]}, {"compound": "COc1cc(NC(=O)C2CC2)c(Cl)cc1C(=O)N[C@H]1CCN(C2C3CCCC2CCC3)C1", "note": "(stereo partly drawn)", "values": [{"measurement": "ED50", "setting": "Mus musculus [2]", "value": "> 10", "unit": "mg/kg"}, {"measurement": "Ki", "setting": "D(3) dopamine receptor", "value": 2.2, "unit": "nM"}, {"measurement": "Ki", "setting": "D(4) dopamine receptor", "value": 3.8, "unit": "nM"}]}]}
